Data published in US12570642B2, “GLP-IR modulating compounds” (Gilead Sciences, Inc., priority 2021, dated 2026).

These compounds were tested against GLP-1R (Homo sapiens, UniProt P43220) (assay: GLP-1R Activation - cAMP Assay). Conditions: […]; each compound run on one of the two cAMP assays (Assay 1 or Assay 2, not specified).
Type: cell-based
Experimental: GLP-1R Activation—cAMP Assay 1
GLP-1R activation by compounds of the present disclosure were quantified by measuring cAMP increase in CHO cells stably expressing GLP-1R (MultiSpan product #C1267-1a). The cells were harvested and plated in growth medium (DMEM/F-12 (Corning product #10-090-CV) supplemented with 10% FBS (HyClone product #SH30071-03), penicillin/streptomycin (Corning product #30-002CI) and 10 μg/ml puromycin (Gibco product #A11138-03)) at 1,000 cells/well in a 384-well plate (Greiner product #781080). The cells were then incubated overnight at 37° C., 5% CO2. The next day, the medium was removed and the cells were washed with DPBS (Corning product #21-031-CM) before adding the assay medium (HBSS, Corning product #21-023-CV) with 20 mM Hepes (Gibco product #15630-080) and 0.1% BSA (Rockland Immunochemicals product #BSA-1000)). Following the medium change, the cells were incubated for 1 hour at 37° C., 5% CO2. The tested GLP-1 compound was added to the cells in a 10-point dose response followed by a 30 minutes incubation at 37° C., 5% CO2. cAMP concentration increase was then detected using Cisbio's cAMP Gs Dynamic Kit (product #62AM4PEC) according to the manufacturer's protocol. The response was plotted against the log of the agonist concentration and fitted to a sigmoidal equation to determine the EC50.

GLP-1R, sequence (P43220 24-463): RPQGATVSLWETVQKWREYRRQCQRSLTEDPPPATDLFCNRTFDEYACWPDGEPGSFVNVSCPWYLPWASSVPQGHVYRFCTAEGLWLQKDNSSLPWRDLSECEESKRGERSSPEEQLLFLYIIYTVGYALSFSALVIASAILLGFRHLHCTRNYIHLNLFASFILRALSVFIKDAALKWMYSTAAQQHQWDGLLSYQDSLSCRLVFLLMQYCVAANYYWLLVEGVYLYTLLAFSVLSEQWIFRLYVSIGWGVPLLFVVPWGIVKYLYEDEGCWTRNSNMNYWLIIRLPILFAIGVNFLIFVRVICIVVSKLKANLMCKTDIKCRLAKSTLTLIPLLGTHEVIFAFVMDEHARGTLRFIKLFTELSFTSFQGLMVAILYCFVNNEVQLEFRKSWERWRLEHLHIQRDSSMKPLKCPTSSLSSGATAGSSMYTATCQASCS

SMILES | EC50
N#Cc1ccc(COc2cccc(-c3cc(F)c(Cc4nc5ccc(C(=O)O)cc5n4[C@@H]4CNC(=O)C4)cc3F)n2)c(F)c1 [Example 2, (S)-2-(4-(6-((4-cyano-2-fluorobenzyl)oxy)pyridin-2-yl)-2,5-difluorobenzyl)-1-(5-oxopyrrolidin-3-yl)-1H-benzo[d]imidazole-6-carboxylic acid] | 156000 pM

Same assay, conditions: cAMP increase in CHO cells stably expressing GLP-1R; each compound run on one of the two cAMP assays (Assay 1 or Assay 2, not specified)

SMILES | EC50
CO[C@@H]1COCC1n1c(Cc2cc(F)c(-c3cccc(OCc4ccc(C#N)cc4F)n3)cc2F)nc2c(F)cc(C(=O)O)cc21 (single isomer, unassigned) [Example 239] | 40 pM
N#Cc1ccc(COc2cccc(-c3cc(F)c(Cc4nc5ccc(C(=O)O)cc5n4[C@H]4COCC45CC5)cc3F)n2)c(F)c1 (single isomer, unassigned) [Example 259] | 578 pM
N#Cc1ccc(COc2cccc(-c3cc(F)c(Cc4nc5ccc(C(=O)O)cc5n4[C@@H]4COCC45CC5)cc3F)n2)c(F)c1 (single isomer, unassigned) [Example 260] | 411 pM
N#Cc1ccc(COc2cccc(-c3cc(F)c(Cc4nc5ccc(C(=O)O)cc5n4[C@@H]4COC[C@H]4C(F)F)cc3F)n2)c(F)c1 (single isomer, unassigned) [Example 261] | 4080 pM
N#Cc1ccc(COc2cccc(-c3cc(F)c(Cc4nc5ccc(C(=O)O)cc5n4[C@H]4COC[C@@H]4C(F)F)cc3F)n2)c(F)c1 (single isomer, unassigned) [Example 262] | 1070 pM
CO[C@@H]1COC[C@@H]1n1c(Cc2cc(F)c(-c3cccc(OCc4ccc(C#N)cc4F)n3)cc2F)nc2ccc(C(=O)O)cc21 (single isomer, unassigned) [Example 275] | 168 pM
CO[C@H]1COC[C@H]1n1c(Cc2cc(F)c(-c3cccc(OCc4ccc(C#N)cc4F)n3)cc2F)nc2ccc(C(=O)O)cc21 (single isomer, unassigned) [Example 276] | 108 pM
CC1(C)COC[C@H]1n1c(Cc2cc(F)c(-c3cccc(OCc4ncc(Cl)cc4F)n3)cc2F)nc2ccc(C(=O)O)cc21 (single isomer, unassigned) [Example 289A] | 122 pM
CC1(C)COC[C@@H]1n1c(Cc2cc(F)c(-c3cccc(OCc4ncc(Cl)cc4F)n3)cc2F)nc2ccc(C(=O)O)cc21 (single isomer, unassigned) [Example 289B] | 931 pM
COc1cc(Cl)ncc1COc1cccc(-c2cc(F)c(Cc3nc4ccc(C(=O)O)cc4n3[C@@H]3COCC3(C)C)cc2F)n1 (single isomer, unassigned) [Example 290A] | 63 pM
COc1cc(Cl)ncc1COc1cccc(-c2cc(F)c(Cc3nc4ccc(C(=O)O)cc4n3[C@H]3COCC3(C)C)cc2F)n1 (single isomer, unassigned) [Example 290B] | 764 pM
CO[C@@]1(C)COC[C@H]1n1c(Cc2cc(F)c(-c3cccc(OCc4ccc(C#N)cc4F)n3)cc2F)nc2ccc(C(=O)O)cc21 (single isomer, unassigned) [Example 311A] | 64 pM
CO[C@]1(C)COC[C@@H]1n1c(Cc2cc(F)c(-c3cccc(OCc4ccc(C#N)cc4F)n3)cc2F)nc2ccc(C(=O)O)cc21 (single isomer, unassigned) [Example 311B, 2-[[4-[6-[(4-cyano-2-fluoro-phenyl)methoxy]-2-pyridyl]-2,5-difluoro-phenyl]methyl]-3-[4-methoxy-4-methyl-tetrahydrofuran-3-yl]benzimidazole-5-carboxylic Acid] | 159 pM
CO[C@]1(C)COC[C@H]1n1c(Cc2cc(F)c(-c3cccc(OCc4ccc(C#N)cc4F)n3)cc2F)nc2ccc(C(=O)O)cc21 (single isomer, unassigned) [Example 312] | 397 pM
CO[C@@]1(C)COC[C@@H]1n1c(Cc2cc(F)c(-c3cccc(OCc4ccc(C#N)cc4F)n3)cc2F)nc2ccc(C(=O)O)cc21 (single isomer, unassigned) [Example 313] | 1140 pM
CC1(C)COC[C@@H]1n1c(Cc2ccc(-c3cccc(OCc4ccc(C#N)cc4F)n3)cc2F)nc2ccc(C(=O)O)cc21 (single isomer, unassigned) [Example 379] | 574 pM
CC1(C)COC[C@@H]1n1c(Cc2ccc(-c3cccc(OCc4ccc(C#N)cc4F)n3)cc2F)nc2ccc(C(=O)O)cc21 (single isomer, unassigned) [Example 380] | 96 pM
CC1(C)COC[C@H]1n1c(Cc2cc(F)c(-c3cccc(OCc4ccc(C(F)F)cc4F)n3)cc2F)nc2ccc(C(=O)O)cc21 (single isomer, unassigned) [Example 383A] | 747 pM

SMILES | EC50
CC1(C)COC[C@@H]1n1c(Cc2cc(F)c(-c3cccc(OCc4ccc(C(F)F)cc4F)n3)cc2F)nc2ccc(C(=O)O)cc21 (single isomer, unassigned) [Example 383B] | 971 pM
CC1(C)COC[C@H]1n1c(Cc2cc(F)c(-c3cccc(OCc4ccc(Cl)cc4)n3)cc2F)nc2ccc(C(=O)O)cc21 (single isomer, unassigned) [Example 385A] | 89 pM
CC1(C)COC[C@@H]1n1c(Cc2cc(F)c(-c3cccc(OCc4ccc(Cl)cc4)n3)cc2F)nc2ccc(C(=O)O)cc21 (single isomer, unassigned) [Example 385B] | 1120 pM
CO[C@@H]1CCOC[C@@H]1n1c(Cc2cc(F)c(-c3cccc(OCc4ccc(C#N)cc4F)n3)cc2F)nc2ccc(C(=O)O)cc21 (single isomer, unassigned) [Example 408] | 633 pM
CO[C@H]1CCOC[C@H]1n1c(Cc2cc(F)c(-c3cccc(OCc4ccc(C#N)cc4F)n3)cc2F)nc2ccc(C(=O)O)cc21 (single isomer, unassigned) [Example 409] | 291 pM
N#Cc1ccc(COc2cccc(-c3cc(F)c(Cc4nc5ccc(C(=O)O)cc5n4[C@@H]4COC[C@@H]4CO)cc3F)n2)c(F)c1 (single isomer, unassigned) [Example 435] | 60 pM
N#Cc1ccc(COc2cccc(-c3cc(F)c(Cc4nc5ccc(C(=O)O)cc5n4[C@H]4COC[C@H]4CO)cc3F)n2)c(F)c1 (single isomer, unassigned) [Example 436] | 993 pM
CO[C@]1(C)COC[C@@H]1n1c(Cc2cc(F)c(-c3cccc(OCc4ccc(Cl)cc4F)n3)cc2F)nc2ccc(C(=O)O)cc21 (single isomer, unassigned) [Example 473] | 92 pM
CO[C@@]1(C)COC[C@H]1n1c(Cc2cc(F)c(-c3cccc(OCc4ccc(Cl)cc4F)n3)cc2F)nc2ccc(C(=O)O)cc21 (single isomer, unassigned) [Example 474] | 181 pM
CC1(C)COC[C@H]1n1c(Cc2cc(F)c(-c3cccc(OCc4ccc(C(F)F)cc4F)n3)cc2F)nc2c(F)cc(C(=O)O)cc21 (single isomer, unassigned) [Example 502A] | 281 pM
CC1(C)COC[C@@H]1n1c(Cc2cc(F)c(-c3cccc(OCc4ccc(C(F)F)cc4F)n3)cc2F)nc2c(F)cc(C(=O)O)cc21 (single isomer, unassigned) [Example 502B] | 939 pM
COC[C@@]1(C)COCC1n1c(Cc2cc(F)c(-c3cccc(OCc4ccc(Cl)cc4F)n3)cc2F)nc2ccc(C(=O)O)cc21 (single isomer, unassigned) [Example 546] | 706 pM
COC[C@@]1(C)COCC1n1c(Cc2cc(F)c(-c3cccc(OCc4ccc(Cl)cc4F)n3)cc2F)nc2ccc(C(=O)O)cc21 (single isomer, unassigned) [Example 547] | 24 pM
COC[C@]1(C)COCC1n1c(Cc2cc(F)c(-c3cccc(OCc4ccc(Cl)cc4F)n3)cc2F)nc2ccc(C(=O)O)cc21 (stereo in doubt) [Example 549, 2-(4-(6-((4-chloro-2-fluorobenzyl)oxy)pyridin-2-yl)-2,5-difluorobenzyl)-1-((3R,4S)-4-(methoxymethyl)-4-methyltetrahydrofuran-3-yl)-1H-benzo[d]imidazole-6-carboxylic acid] | 727 pM
O=C(O)c1ccc2nc(Cc3cc(F)c(-c4cccc(OCc5ccc(Cl)cc5F)n4)cc3F)n(C3COC4CC3C4)c2c1 (stereo in doubt) [Example 572, (R)-1-(2-oxabicyclo[3.1.1]heptan-4-yl)-2-(4-(6-((4-chloro-2-fluorobenzyl)oxy)pyridin-2-yl)-2,5-difluorobenzyl)-1H-benzo[d]imidazole-6-carboxylic acid] | 322 pM
O=C(O)c1ccc2nc(Cc3cc(F)c(-c4cccc(OCc5ccc(Cl)cc5F)n4)cc3F)n(C3COC4CC3C4)c2c1 (stereo in doubt) [Example 573, (S)-1-(2-oxabicyclo[3.1.1]heptan-4-yl)-2-(4-(6-((4-chloro-2-fluorobenzyl)oxy)pyridin-2-yl)-2,5-difluorobenzyl)-1H-benzo[d]imidazole-6-carboxylic acid] | 188 pM
N#Cc1ccc(COc2cccc(-c3cc(F)c(Cc4nc5ccc(C(=O)O)cc5n4[C@H]4CCOC4)cc3F)n2)c(F)c1 [Example 1, (S)-2-(4-(6-((4-cyano-2-fluorobenzyl)oxy)pyridin-2-yl)-2,5-difluorobenzyl)-1-(tetrahydrofuran-3-yl)-1H-benzo[d]imidazole-6-carboxylic acid] | 1120 pM
